For this experiment, the system named is MV-4-11 cells. The experiment can be described thus: Gene expression microarray analysis (Affymetrix PrimeView) and GSEA. It counts as cell-based, human. The following applies: ProbeSet 11754607_s_at; LIST B.

For the molecule `Nc1ccc(-c2cccs2)cc1NC(=O)c1ccc2c(c1)cc(C1CC1)n2CCN1CCOCC1` [ACY-1035], the “RFU, HSP90B1 /// MIR3652” value worked out at 2548.05 RFU.
